# What was measured:
# Smoothened (SMO) [1] = biological target: T1, Smoothened (SMO) (Homo sapiens, UniProt Q99835, L112A); experiment: pull-down of purified L112A SMO or CRD on biotinylated cholesterol beads; assay type: binding
# T1 construct: purified L112A SMO; also the L112A CRD fragment
# Smoothened (SMO) [2] = biological target: T2, Smoothened (SMO) (Homo sapiens, UniProt Q99835, Y394F); experiment: pull-down of purified Y394F SMO on biotinylated cholesterol beads; assay type: binding
# T2 construct: purified Y394F SMO
# Smoothened (SMO) [3] = biological target: T2, Smoothened (SMO); experiment: free cortisol competes with biotinylated cholesterol beads for purified Y394F SMO; assay type: binding
# Smoothened (SMO) [4] = biological target: T3, Smoothened (SMO) (Homo sapiens, UniProt Q99835); experiment: Asp-evoked current in HeLa cells expressing WT SMO; effect lost with L112A; assay type: cell-based
# T3 construct: full-length SMO expressed in HeLa cells
# T3 sequence (Q99835 28-787): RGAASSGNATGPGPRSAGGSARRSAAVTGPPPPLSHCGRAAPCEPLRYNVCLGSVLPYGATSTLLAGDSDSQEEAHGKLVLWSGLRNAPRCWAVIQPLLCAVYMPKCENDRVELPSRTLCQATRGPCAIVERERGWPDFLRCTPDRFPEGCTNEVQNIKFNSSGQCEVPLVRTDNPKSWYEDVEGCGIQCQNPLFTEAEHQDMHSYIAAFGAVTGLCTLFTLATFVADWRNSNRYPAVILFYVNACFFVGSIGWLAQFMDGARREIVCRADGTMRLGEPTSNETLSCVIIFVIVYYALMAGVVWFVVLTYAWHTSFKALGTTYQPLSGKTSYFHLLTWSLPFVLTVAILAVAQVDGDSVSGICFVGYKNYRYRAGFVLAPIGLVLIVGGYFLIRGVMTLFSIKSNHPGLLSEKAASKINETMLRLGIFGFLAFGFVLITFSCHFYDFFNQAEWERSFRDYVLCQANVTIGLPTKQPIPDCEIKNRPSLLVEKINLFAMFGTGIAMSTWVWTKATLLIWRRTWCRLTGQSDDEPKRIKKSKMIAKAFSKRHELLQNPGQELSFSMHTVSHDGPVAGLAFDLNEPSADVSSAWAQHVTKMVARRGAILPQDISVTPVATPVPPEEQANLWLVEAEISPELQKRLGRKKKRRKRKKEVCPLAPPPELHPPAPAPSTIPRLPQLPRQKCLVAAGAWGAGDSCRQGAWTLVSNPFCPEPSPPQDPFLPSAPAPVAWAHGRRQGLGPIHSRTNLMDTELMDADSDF
# T2 sequence (Q99835 28-787 Y394F): as the sequence (Q99835 28-787) above, with Y367F counted along it
# T1 sequence (Q99835 28-787 L112A): as the sequence (Q99835 28-787) above, with L85A counted along it
smiles,measurement,setting,value
"CC(C)CCC[C@@H](C)[C@H]1CC[C@H]2[C@@H]3CC=C4C[C@@H](O)CC[C@]4(C)[C@H]3CC[C@]12C [Chol, cholesterol]",pull-down of purified L112A SMO or CRD on biotinylated cholesterol beads,Smoothened (SMO) [1],The CB remained binding to the purified WT and L112A SMO
same,pull-down of purified Y394F SMO on biotinylated cholesterol beads,Smoothened (SMO) [2],mutation of the Y394 to F394 did not change CB binding to the SMO
"C[C@]12CCC(=O)C=C1CC[C@@H]1[C@@H]2[C@@H](O)C[C@@]2(C)[C@H]1CC[C@]2(O)C(=O)CO [Cort, cortisol]",free cortisol competes with biotinylated cholesterol beads for purified Y394F SM,Smoothened (SMO) [3],cortisol remained inhibiting the CB binding to the mutated SMO in a dose-dependent manner
C[C@]12C[C@H](O)[C@H]3[C@@H](CCC4=CC(=O)CC[C@@]43C)[C@@H]1CC[C@@H]2C(=O)CO [corticosterone],Asp-evoked current in HeLa cells expressing WT SMO; effect lost with L112A,Smoothened (SMO) [4],The corticosterone inhibition was not observed in the L112A mutant SMO cells

# From article PMC11743026, “Cortisol regulates neonatal lung development via Smoothened” (Respiratory Research, 2025)
